The values that follow come from US9744164B2, “Neuroprotective polyphenol analogs” (Salk Institute for Biological Studies, priority 2011, dated 2017).

For one assay, the system named is HT22 cells. The assay is described as follows: in vitro ischemia assay (HT22 cell IAA assay). In kind it is cell-based, mouse. The settings on record: for increase in survival: 20 μM IAA, over the neuroprotective concentration range; for improvement of neuroprotective activity/potency over Fisetin: relative to Fisetin, in vitro ischemia. As for the experimental part:
For these studies, cultured HT22 mouse hippocampal cells were used as an in vitro stroke assay. HT22 cells were treated with iodoacetic acid (IAA), an irreversible inhibitor of glyceraldehyde 3-phosphate dehydrogenase (G3PDH) for 2 hr alone or in the presence of varying concentrations of Fisetin. G3PDH is an enzyme of the glycolysis pathway, which catalyzes the synthesis of 1,3-bisphosphoglycerate, a “high energy” intermediate used for the synthesis of ATP. Cell survival was measured using a standard colorimetric MTT (3-(4,5-dimethylthiazol-2-yl)-2,5-diphenyltetrazolium bromide) assay for cell survival MTT is a pale yellow substrate that is cleaved by living cells to yield a dark blue formazan product.
Cytotoxicity assay. Cell viability was determined by a modified version of 3-(4,5-dimethylthiazol-2-yl)-2,5-diphenyl tetrazolium bromide (MTT) assay based on the standard procedure (Maher, et al., Brain Research. (2007), supra). Cells were seeded onto 96-well microtiter plates at a density of 5×10^3 cells per well. For the in vitro ischemia assay, the next day, the medium was replaced with DMEM supplemented with 7.5% DFCS and the cells were treated with 20 μM iodoacetic acid (IAA) alone or in the presence of the different derivatives. After 2 hr the medium in each well was aspirated and replaced with fresh medium without IAA but containing the derivatives. 20 hr later, the medium in each well was aspirated and replaced with fresh medium containing 2.5 μg/ml MTT. After 4 hr of incubation at 37° C., the cells were solubilized with 100 μl of a solution containing 50% dimethylformamide and 20% SDS (pH 4.7). The absorbance at 570 nm was measured on the following day with a microplate reader (Molecular Devices). Results were confirmed by visual inspection of the wells. Controls included compound alone to test for toxicity and compound with no cells to test for interference with the assay chemistry.
For a primary screen, an in vitro ischemia model in combination with the HT22 nerve cell line (Maher, et al., Brain Research. (2007) 1173, 117-125) was chosen. […] To induce ischemia in the HT22 cells we used iodoacetic acid (IAA), a well-known, irreversible inhibitor of the glycolytic enzyme glyceraldehyde 3-phosphate dehydrogenase (G3PDH) (Winkler, et al., Exp. Eye Res. (2003) 76, 715-723). IAA has been used in a number of other studies to induce ischemia in nerve cells (Reshef, et al., Neurosci. Lett. (1997) 238, 37-40; Sperling, et al., Neursci. Lett. (2003) 351, 137-140; Rego, et al., Neurochem. Res. (1999) 24, 351-358; Sigalov, et al,. J. Mol. Neurosci. (2000) 15, 147-154; and Reiner, et al., Neurosci. Lett. (1990) 119, 175-178), including several recent screens for neuroprotective molecules (Biraboneye, et al., J. Med. Chem. (2009) 52 (14), 4358-4369; Biraboneye, et al., Chem. Med. Chem. (2010) 5 (1), 79-85). The changes following IAA treatment of neural cells are very similar to those seen in animal models of ischemic stroke (Lipton, et al., Physiol. Rev. (1999) 79, 1431-1568) and include alterations in membrane potential (Reiner, et al., Neurosci. Lett. (1990) 119, 175-178), breakdown of phospholipids (Taylor, et al., J. Pharmacol. Exp. Ther. (1996) 276, 1224-1231), loss of ATP (Winkler, et al., Exp. Eye Res. (2003) 76, 715-723; Sperling, et al., Neursci. Lett. (2003) 351, 137-140) and an increase in reactive oxygen species (ROS) (Taylor, et al., J. Pharmacol. Exp. Ther. (1996), supra; and Sperling, et al., Neursci. Lett. (2003) 351, 137-140).
The roles of the four different hydroxyl groups in the activity of Fisetin were studied. […] Cell viability was determined after 24 hr by the MTT assay. The ability to maintain GSH (GSH) was determined by treating HT22 cells with different doses of each derivative (1-10 μM) in the presence of 5 mM glutamate. After 24 hr cell extracts were prepared and analyzed for total GSH. Fisetin (10 μM) was used as a positive control. […]

Another assay deals with rat cortical neurons. The assay is described as follows: trophic factor withdrawal. The class given is cell-based. The settings on record: serum-containing medium, Baicalein 10-10,000 nM, 2 days. Here is the method:
FIG. 5A—trophic factor withdrawal. Primary cortical neurons are prepared from 18-day-old rat embryos, and cultured at low cell density 1×10^6/35 mm dish, in serum containing medium with Baicalein (10-10,000 nM), and viability assayed 2 days later using a live-dead assay. […] These include trophic factor withdrawal (TFW), excitotoxicity, glucose starvation, and most importantly, in a chemical ischemia model. […] (FIG. 5A). Using a published excitotoxicity assay, Baicalein rescues about 35% of the cells (FIG. 5B).

The test system of the next assay is PC12 cells. The assay is described as follows: glucose starvation assay. The class given is cell-based. The settings on record: PC12 cells starved for glucose, MTT 24 hr. As for the experimental part:
FIG. 5C—PC12 cells were glucose-deprived then were incubates in the absence or presence of Baicalein. Cell viability was determined 24 hr later using the MTT assay. […] When these cells are starved for glucose, there is approximately 70% maximal survival in the presence of NGF. Baicalein promotes over 80% survival (FIG. 5C).

The test system of another assay is Akita mouse. Conditions: Maher et al. 2011; cited from earlier work.

For the molecule `O=c1cc(-c2ccccc2)oc2cc(O)c(O)c(O)c12` [Baicalein, 5,6,7-trihydroxyflavone], in the assay with HT22 cells (HT22 cells), the increase in survival entry is “greater than 80%”. In addition, in the assay with rat cortical neurons, the “survival of low-density cultured rat cortical neurons” value is listed as “dramatically promotes the survival”. The survival entry in the assay with PC12 cells was “over 80%”.
For the molecule `O=c1c(O)c(-c2ccc(O)c(O)c2)oc2ccccc12` [CMS-04P, reference compound], the “improvement of neuroprotective activity/potency over Fisetin” value in the assay on HT22 cells is listed as approximately 6 fold.
On the same count and under the same terms, in the case of `COc1cc(-c2ccc(O)c(O)c2)nc2ccccc12` [CMS-007, 4-methoxy-2-(3,4-dihydroxyphenyl)quinoline] it was approximately 75 fold.
Consider `CCOc1cc(-c2ccc(O)c(O)c2)nc2ccccc12` [CMS-023, 4-ethoxy-2-(3,4-dihydroxyphenyl)quinoline], for which, in the assay on HT22 cells, the “improvement of neuroprotective activity relative to CMS-007” value is reported as approximately 2 fold and the “improvement of neuroprotective activity/potency over Fisetin” value was approximately 140 fold.
For `CC(C)Oc1cc(-c2ccc(O)c(O)c2)nc2ccccc12` [CMS-024, 4-isopropoxy-2-(3,4-dihydroxyphenyl)quinoline], the “improvement of neuroprotective activity relative to CMS-007” value in the assay on HT22 cells was approximately 2 fold.
`COc1ccc(/C=C/C(=O)c2cc(C)c(C)cc2O)cc1OCc1ccccc1` [CMS-086, (E)-3-(3-(benzyloxy)-4-methoxyphenyl)-1-(2-hydroxy-4,5-dimethylphenyl)prop-2-en-1-one]: in the assay with HT22 cells (HT22 cells, 20 μM IAA 2 hr, viability by MTT after 24 hr, 'no' = no protection), the “EC50 in vitro ischemia” value is given as “no”.
Turning to `Oc1ccc(-c2cc(OC3CCCC3)c3ccccc3n2)cc1O` [CMS-121, 4-cyclopentyloxy-2-(3,4-dihydroxyphenyl)quinoline], the “improvement of neuroprotective activity/potency over Fisetin” value in the assay on HT22 cells is on record as more than 400 fold.
Same read-out and setting: in the case of `O=c1c(O)c(-c2ccc(N3CCCC3)c(O)c2)oc2c1ccc1ccccc12` [CMS-140, 3-hydroxy-2-(3-hydroxy-4-(pyrrolidin-1-yl)phenyl)-4H-benzo[h]chromen-4-one] it was “up to 600 fold”.
On to `O=c1c(O)c(-c2ccc(O)c(O)c2)oc2cc(O)ccc12` [Fisetin, 3,7,3′,4′-tetrahydroxy flavone], for which the increase in survival result with HT22 cells (HT22 cells) is on record as “greater than 85%”. In addition, in the assay on Akita mouse, the “elevation of blood sugar” value is given as “no effect”; the “kidney hypertrophy and albuminuria” value was “reduced”.
